Measurements as given in patent US3984415A, “1-Nitrophenylpyrido [2,3-d] pyrimidine-2,4(1H,3H)-diones” (Hisamitsu Pharmaceutical Co., Inc., priority 1973, dated 1976).
Where two headings read alike, the source gives them in different places.

Assays:
[1] = Analgetic effect (acetic acid writhing syndrome); type: in vivo, dd-strain male mice; conditions: Mus musculus, po; orally, mice, acetic acid writhing
Protocol: Each test compound suspended in 0.5 % tragacanth-saline solution was orally administered to dd-strain male mice (18-20 g). After one hour 0.6% acetic acid solution was intraperitoneally injected in a volume of 0.1 ml/10 g.

dd-strain male mice = conditions: 72 hours
Protocol: The lethal dose was estimated from the death of animals 72 hours after administration.

[2] = Anti-inflammatory effect (carrageenin edema of hind paw); type: in vivo, Wistar-strain male rats; conditions: Rattus norvegicus, po, read-out: anti-inflammatory effect (inhibition percentage of carrageenin edema)
Protocol: 2. Anti-inflammatory effect
A group of five Wistar-strain male rats (100-150 g) were orally administered with each test compound suspended in 0.5 % tragacanth-saline solution. After 30 minutes 0.5 %-1.0 % carrageenin suspended in the water for injection was injected subcutaneously to a hind paw. After 3 hours the carrageenin edema was measured by volume and the inhibition percentage was determined with respect to the results for the control animals. The inhibition percentages were shown with the notations as follows: […]

[3] = dose 10 mg/kg, orally, rats, 3 hours
[4] = dose 50 mg/kg, orally, rats, 3 hours

SMILES	ED50 [1]	acute toxicity (lethal dose) (dd-strain male mice; i.p.)	acute toxicity (lethal dose) (dd-strain male mice; p.o.)	inhibition in vivo at 10 mg/kg [2, 3]	inhibition in vivo at 20 mg/kg ([2]; orally, rats, 3 hours)	inhibition in vivo at 50 mg/kg [2, 4]	inhibition in vivo at 100 mg/kg ([2]; orally, rats, 3 hours)	inhibition in vivo at 10 mg/kg ([2]; 3 h)	inhibition in vivo at 50 mg/kg ([2]; 3 h)
CCn1c(=O)c2cccnc2n(-c2cccc(C(F)(F)F)c2)c1=O [--C2 H5, reference compound]	10 mg/kg	600 mg/kg	665 mg/kg	46 to 60%	46 to 60%	> 61%	> 61%	–	–
CCCn1c(=O)c2cccnc2n(-c2cccc(Br)c2)c1=O [--CH2 CH2 CH3, reference compound]	20 mg/kg	> 1000 mg/kg	–	46 to 60%	31 to 45%	46 to 60%	> 61%	–	–
Cn1c(=O)c2cccnc2n(-c2cccc(Cl)c2)c1=O [--CH3, reference compound]	7.1 mg/kg	> 1000 mg/kg	> 1000 mg/kg	31 to 45%	46 to 60%	46 to 60%	46 to 60%	–	–
Cn1c(=O)c2cccnc2n(-c2cccc([N+](=O)[O-])c2)c1=O [Compound 2, 1-(m-nitrophenyl)-3-methylpyrido[2,3-d]pyrimidine-2,4(1H,3H)-dione]	0.175 mg/kg	–	–	46 to 60%	46 to 60%	> 61%	> 61%	–	–
CCn1c(=O)c2cccnc2n(-c2cccc([N+](=O)[O-])c2)c1=O [Compound 3, 1-(m-nitrophenyl)-3-ethylpyrido[2,3-d]pyrimidine-2,4(1H,3H)-dione]	0.113 mg/kg	–	–	> 61%	> 61%	> 61%	–	–	–
CCCn1c(=O)c2cccnc2n(-c2cccc([N+](=O)[O-])c2)c1=O [Compound 4]	2.6 mg/kg	1000 mg/kg	> 2000 mg/kg	46 to 60%	46 to 60%	31 to 45%	46 to 60%	–	–
CC(C)n1c(=O)c2cccnc2n(-c2cccc([N+](=O)[O-])c2)c1=O [Compound 5]	2.15 mg/kg	> 1000 mg/kg	–	46 to 60%	46 to 60%	46 to 60%	> 61%	–	–
CC(C)Cn1c(=O)c2cccnc2n(-c2cccc([N+](=O)[O-])c2)c1=O [Compound 7]	3.1 mg/kg	1000 mg/kg	> 2000 mg/kg	–	31 to 45%	31 to 45%	31 to 45%	–	–
C=CCn1c(=O)c2cccnc2n(-c2cccc([N+](=O)[O-])c2)c1=O [Compound 9, 1-(m-nitrophenyl)-3-allylpyrido[2,3-d]pyrimidine-2,4(1H,3H)-dione]	2.6 mg/kg	–	> 2000 mg/kg	> 61%	46 to 60%	> 61%	> 61%	–	–
CC(C)=CCn1c(=O)c2cccnc2n(-c2cccc([N+](=O)[O-])c2)c1=O [Compound 10]	0.43 mg/kg	–	> 2000 mg/kg	31 to 45%	31 to 45%	> 61%	46 to 60%	–	–
C#CCn1c(=O)c2cccnc2n(-c2cccc([N+](=O)[O-])c2)c1=O [Compound 12]	1.15 mg/kg	> 1000 mg/kg	> 2000 mg/kg	46 to 60%	46 to 60%	46 to 60%	> 61%	–	–
O=c1c2cccnc2n(-c2cccc([N+](=O)[O-])c2)c(=O)n1CCCl [Compound 14]	0.19 mg/kg	> 1000 mg/kg	> 2000 mg/kg	46 to 60%	> 61%	46 to 60%	> 61%	–	–
O=c1c2cccnc2n(-c2cccc([N+](=O)[O-])c2)c(=O)n1CCF [Compound 15]	~0.01 mg/kg	–	2000 mg/kg	> 61%	46 to 60%	> 61%	46 to 60%	–	–
O=c1c2cccnc2n(-c2cccc([N+](=O)[O-])c2)c(=O)n1CC(F)(F)F [Compound 16, 1-(m-nitrophenyl)-3-(2,2,2-trifluoroethyl)pyrido[2,3-d]pyrimidine-2,4(1H,3H)-dione]	1.28 mg/kg	> 1000 mg/kg	> 2000 mg/kg	46 to 60%	> 61%	46 to 60%	46 to 60%	–	–
O=c1c2cccnc2n(-c2cccc([N+](=O)[O-])c2)c(=O)n1CCO [Compound 18, 1-(m-nitrophenyl)-3-(2-hydroxyethyl)pyrido[2,3-d] pyrimidine-2,4(1H,3H)-dione]	0.42 mg/kg	> 1000 mg/kg	> 2000 mg/kg	–	–	31 to 45%	31 to 45%	–	–
O=c1c2cccnc2n(-c2cccc([N+](=O)[O-])c2)c(=O)n1CCCO [Compound 19]	~1 mg/kg	> 1000 mg/kg	> 2000 mg/kg	31 to 45%	46 to 60%	46 to 60%	> 61%	–	–
CC(=O)OCCn1c(=O)c2cccnc2n(-c2cccc([N+](=O)[O-])c2)c1=O [Compound 21]	0.16 mg/kg	> 1000 mg/kg	2000 mg/kg	–	–	16 to 30%	31 to 45%	–	–
CCOCCn1c(=O)c2cccnc2n(-c2cccc([N+](=O)[O-])c2)c1=O [Compound 23]	0.168 mg/kg	> 1000 mg/kg	–	31 to 45%	46 to 60%	46 to 60%	31 to 45%	–	–
O=C(O)Cn1c(=O)c2cccnc2n(-c2cccc([N+](=O)[O-])c2)c1=O [Compound 26]	33 mg/kg	> 1000 mg/kg	> 2000 mg/kg	–	16 to 30%	31 to 45%	–	–	–
O=c1c2cccnc2n(-c2cccc([N+](=O)[O-])c2)c(=O)n1CC1CC1 [O --CH2]	0.12 mg/kg	–	–	> 61%	> 61%	> 61%	> 61%	–	–
O=c1c2cccnc2n(-c2cccc([N+](=O)[O-])c2)c(=O)n1Cc1ccccc1 [O --Ch2]	1.7 mg/kg	–	–	31 to 45%	46 to 60%	46 to 60%	> 61%	–	–
CN1C(=O)CN=C(c2ccccc2)c2cc(Cl)ccc21 [diazepam, reference compound]	–	–	–	–	–	–	–	< 15%	16 to 30%
CCCCC1C(=O)N(c2ccccc2)N(c2ccccc2)C1=O [phenylbutazone, reference compound]	290 mg/kg	–	–	< 15%	–	31 to 45%	–	–	–
